The nature of the assay: Inhibition of beta3 Tubulin (unknown origin) expressed in human HeLa cell line assessed as inhibition of cell proliferation measured after 48 hrs by SRB method. A general note: The SRB assay estimates cell density from bound dye.

pIC50: −log10 of the molar value.

As a reminder, the pIC50 is the negative decadic logarithm of the IC50, by convention in mol/L.

In the case of `COc1ccc(N(C)c2nc(C)nc3c2CCC3)cc1`, the pIC50 is 8.02.

For the compound `COc1ccc(N(C)c2nc(C)nc3c2CCC3)c2ccccc12`, the pIC50 is 6.74.

In the case of `COc1cccc2cc(N(C)c3ncnc4c3CCC4)ccc12`, the pIC50 is 7.37.

As for `COc1cccc2cc(N(C)c3nc(N)nc4c3CCC4)ccc12`, the pIC50 was 8.02.

The values above are taken from BindingDB's records for doi:10.1016/j.bmc.2020.115887 (Duquesne University, 2021).
